We go through one compound from patent US20140128431A1, “PHARMACEUTICAL COMPOSITION WITH IMPROVED BIOAVAILABILITY, SAFETY AND TOLERABILITY” (priority 2012, published 2014).

Data set [1] in a line: Caco-2 assay (permeability). It is filed as in vitro ADME. The note with it: human. An excerpt:
(§1) The compound is moderately permeable as determined with the Caco-2 assay value of 4.5×10-6 cm/s. Targeted high doses/frequency of dosing for this series of compounds, led to the categorization of Compound A as BCS class IV compound (low solubility/low permeability).

Data set [2] in a line: Aqueous solubility of crystalline Compound A at physiological pHs. The note with it: aqueous media at physiological pHs (pH 1.5-8.0), aqueous buffer, crystalline form. It is filed as physicochemical.
Source text: as §1

Regarding `COc1ccc(-c2cc(C(C)(C)C)c(OC)c3cc(-c4ccc(NS(C)(=O)=O)cc4)cnc23)c(=O)[nH]1` [Compound A, N-{4-[6-tert-Butyl-5-methoxy-8-(6-methoxy-2-oxo-1,2-dihydro-pyridin-3-yl)-quinolin-3-yl]-phenyl}-methanesulfonamide], in data set [1], the Papp – broadly, a coefficient for how fast a substance crosses the barrier – is 4.5 ×10⁻⁶ cm/s. Further, the solubility (commonly how much of the substance goes into solution per volume) in data set [2] is less than 1 µg/mL.
